Results on five molecules are retold here after US5399565A, “Pyrazolidinone CCK and gastrin antagonists and pharmaceutical formulations therof” (priority 1993, dated 1995).

Data set [1] in a line: Auditory startle response, benzodiazepine (diazepam) withdrawal. As to conditions: for benzodiazepine withdrawal-induced increase in sensory responsiveness: 60 minutes before startle testing, days 1-4. In kind it is in vivo, Male Long Evans rats. The source says:
(§1) In humans, withdrawal from the chronic administration of benzodiazepines or nicotine can result in a variety of undesirable side-effects, including anxiety. […] Withdrawal from chronic nicotine administration also has anxiogenic effects as indicated by decreased time spent in the light compartment of a light/dark box (Costall et al., Ibid) and increased auditory startle responses. Applicants examined the effects of compounds of this invention on the auditory startle response of rats undergoing withdrawal from the chronic administration of diazepam or nicotine.
(§2) Male Long Evans rats (200-220 g; Harlan Sprague Dawley, Columbus, Ind.) were individually housed in a controlled environment on a 12 hour light-dark cycle and were given free access to food (Purina Rodent Chow) and water. All treatment groups contained 8-10 rats.
(§3) Rats were anesthetized with halothane and Alzet osmotic minipumps (Alza Corporation, Palo Alto, Calif., Model 2ML2) were implanted subcutaneously. Diazepam (Sigma Chemical; St. Louis, Mo.) was suspended in 40% polyethylene glycol, 10% ethanol and Tween 80. Nicotine ditartrate was dissolved in physiological saline. Pumps were filled with either diazepam (20 mg/kg/day), nicotine ditartrate (6 mg/kg base/day), or the appropriate vehicle. Twelve days following implantation of pumps, rats were anesthetized with halothane and the pumps were removed.
(§4) The sensory motor reactions [auditory startle response (peak amplitude, Vmax)]of individual rats was recorded using San Diego Instruments startle chambers (San Diego, Calif.). Startle sessions consisted of a 5-minute adaptation period at a background noise level of 70±2 dBA immediately followed by 25 presentations of auditory stimuli (120±3 dBA noise, 50 ms duration) presented at 8-second intervals. Peak startle amplitudes were then averaged for all 25 presentations of stimuli for each session. Auditory startle responding was evaluated daily at 24 hour intervals on days 1-4 following drug withdrawal.
(§5) The compound of Example 141 was administered 60 minutes before startle testing at doses of 0, 10, 30, 60, or 100 mg/kg.

A short description of data set [2]: CCK-induced colonic motility in anesthetized ferrets. In kind it is in vivo, male ferrets. On the procedure:
(§6) Experiments were performed on fasted (18 hour) male ferrets weighing 0.8-1.5 kilograms (Triple F Supplier) and water was given ad lib. Anesthesia was induced with urethane (0.2 ml/100 grams body weight j.p., Sigma Chemical Company), a tracheal tube was inserted to provide a clear airway for spontaneous breathing and the body temperature was maintained at 38° using a homeothermic blanket (Harvard Apparatus). The left jugular vein was cannulated (PE-50, i.d. 0.58 mm, o.d. 0.97 mm) for the subsequent administration of drugs and the left carotid artery was cannulated (PE-90, i.d. 0.86 mm, o.d. 1.277 mm) for the continual measurement of blood pressure and heart rate. Following a laporatomy, a catheter (PE-50) was inserted into the gall bladder through the bile duct and connected via a pressure transducer to a chart recorder for the visual display. The colon was located and a strain gauge transducer was sutured in the circular muscle direction to monitor contractile state. Before each experiment the blood pressure, heart rate and all motility recording transducers were calibrated for subsequent recording of data.
Following a 30 minute stabilization period, cholecystokinin 8-sulfated (CCK8-S) was given at doses of 100, 300 and 700 ng/kg intravenously (iv), with a 10 minute stabilization period in between CCK8-S doses. […]

The nature of data set [3]: CCK-induced gall bladder emptying in anesthetized ferrets. In kind it is in vivo, male ferrets. On the procedure: as §6
Following a 30 minute stabilization period, cholecystokinin 8-sulfated (CCK8-S) was given at doses of 100, 300 and 700 ng/kg intravenously (iv), with a 10 minute stabilization period in between CCK8-S doses. The test compound was administered (iv) after another 30 minute stabilization period, and the CCK8-S dose-response curve was repeated five minutes later.
Test compound vehicle was 3 drops of DMSO (99.9%), 0.5 ml 0.1N NaOH, saline.

Data set [4] addresses T1, peripheral type CCK receptors in rat pancreas (Rattus norvegicus, UniProt P30551).
T1 construct: Pancreas was obtained from male Sprague-Dawley rats; from tissue; host or cells: pancreas membranes of male Sprague-Dawley rats
T1 sequence (P30551 1-444): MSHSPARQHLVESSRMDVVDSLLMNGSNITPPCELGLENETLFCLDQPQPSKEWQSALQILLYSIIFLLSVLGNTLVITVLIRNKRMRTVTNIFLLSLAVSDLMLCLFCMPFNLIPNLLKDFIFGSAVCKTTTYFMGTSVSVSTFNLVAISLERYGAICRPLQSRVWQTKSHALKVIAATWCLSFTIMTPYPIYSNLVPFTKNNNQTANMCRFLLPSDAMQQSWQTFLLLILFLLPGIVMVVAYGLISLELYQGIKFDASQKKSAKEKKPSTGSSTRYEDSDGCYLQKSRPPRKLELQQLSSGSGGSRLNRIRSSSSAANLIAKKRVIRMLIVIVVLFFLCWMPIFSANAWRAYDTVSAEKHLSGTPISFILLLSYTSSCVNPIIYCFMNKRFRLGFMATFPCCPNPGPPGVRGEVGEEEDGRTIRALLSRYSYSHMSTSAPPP
Put plainly: Binding to peripheral type CCK receptors in rat pancreas (3H-L-364,718). As to conditions: at 10 μM; read-out: Pancreas Percent Inhibition. In short, it runs like this:
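Washed pancreatic membranes from male Sprague-Dawley rats (150-200 g) incubated 1 h at room temperature with 0.4-0.6 nM ³H-L-364,718 in 50 mM Tris pH 7.4, 5 mM MgCl2, bacitracin, 5 mM DTT. Bound radioactivity counted after filtration; nonspecific binding defined with 100 nM L-364,718; IC50 determined.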

In data set [5] the target is T2, brain CCK receptor (Mus musculus, UniProt P56481).
T2 construct: from tissue; host or cells: forebrain membranes of male CF-1 mice
T2 sequence (P56481 1-453): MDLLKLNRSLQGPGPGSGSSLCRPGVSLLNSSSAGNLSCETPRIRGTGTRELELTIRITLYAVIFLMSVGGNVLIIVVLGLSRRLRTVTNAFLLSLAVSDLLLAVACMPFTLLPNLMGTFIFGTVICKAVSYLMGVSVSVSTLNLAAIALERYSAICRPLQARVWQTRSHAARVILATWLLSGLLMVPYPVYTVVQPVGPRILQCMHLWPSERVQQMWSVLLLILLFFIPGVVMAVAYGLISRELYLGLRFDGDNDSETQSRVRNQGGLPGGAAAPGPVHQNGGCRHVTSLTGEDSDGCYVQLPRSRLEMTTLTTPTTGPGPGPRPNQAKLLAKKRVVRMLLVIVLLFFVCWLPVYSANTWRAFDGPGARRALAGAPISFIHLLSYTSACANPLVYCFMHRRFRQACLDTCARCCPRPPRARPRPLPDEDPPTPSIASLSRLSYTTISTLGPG
Put plainly: CCK receptor binding, mouse brain membranes (125I-CCK-8 sulfate).

The conditions of data set [6]: 2:1 dmf:h2o.
Data set [7] in a line: Catalepsy bar test. In kind it is in vivo, Male Sprague-Dawley rats. On the procedure: Acute administration of classical antipsychotic drugs results in catalepsy. Production of catalepsy is thought to be predictive of Parkinson-like extrapyramidal side effects. Sanberg, et al., Neuroscience 102:748-759 (1988). […] Haloperidol, a classical anti-psychotic, was used as a reference.
Male Sprague-Dawley rats (290-350 g) were used in these studies. Catalepsy was evaluated using the bar test (Sanberg et al., Neurosci., 102,748-759, (1988); Ferre, et al., Pharm. Biochem. Beh., 35, 753-757 (1990). The bar apparatus consisted of a horizontal metal rod with a diameter of 1 cm, which was positioned 10 cm from the floor to the top of the bar. The animal was gently placed in front of the bar, and then its forepaws were lifted to rest on the bar. The length of time, in seconds, until both forepaws touched the floor (3 minutes maximum allowed) was recorded. A baseline measurement was taken prior to injection, and catalepsy was evaluated every 60 minutes for three hours after injection of the compounds (Table IV). In a separate set of experiments, the compounds of this invention were administered 60 minutes prior to the administration of haloperidol, and catalepsy was evaluated every 60 minutes for three hours after the haloperidol injection. Catalepsy scores of drug-treated animals were compared to haloperidol- or vehicle-treated animals at each time point using the analysis of variance (ANOVA) (Table V). Haloperidol (Research Biochemicals Inc.) was dissolved in distilled water and a small amount of 0.1N lactic acid. The compounds of this invention were prepared in 50% ethanol. The volume of all injections was 1 ml/kg.

The nature of data set [8]: Auditory startle response, nicotine withdrawal. The format is in vivo, Male Long Evans rats.
Description: as §1, §2, §3, §4, §5

For `CN1C(=O)CN=C(c2ccccc2)c2cc(Cl)ccc21` [diazepam, reference compound], in data set [1] (20 mg/kg/day, minipump, twelve days, withdrawal), the “auditory startle response after cessation of chronic diazepam” value is reported as “significantly increased auditory startle responses”.
With `O=C1NN(C(=O)Nc2ccccc2)[C@@H](c2ccccc2)[C@@H]1c1ccccc1` (racemic) [Example 15, (±)-trans-1-phenylaminocarbonyl-4,5-diphenyl-3-pyrazolidinone], the “inhibition of CCK-induced colonic motility” value in data set [2] (1 mg/kg iv, CCK 300 ng/kg) is listed as 57%. Further, the “inhibition of colonic motility” value in data set [2] (CCK-8 100 ng/kg) is recorded as ~75%. For the same molecule, the gall bladder emptying entry in data set [3] (1 mg/kg iv, CCK 300 ng/kg) is “not measurably altered”. In data set [3] (CCK-8 100 ng/kg), the “alteration of CCK-induced gall bladder emptying” value is listed as “about 10%”. Further, the “effect on CCK-induced gall bladder emptying” value in data set [3] (in words) is reported as “without affecting CCK-induced gall bladder emptying”. The inhibition (as a rule, how much of the control response was suppressed) at 10 µM stood at 10% in data set [4] and 69% in data set [5] (at 10 μM, read-out: Brain Percent Inhibition).
Regarding “1-[(4-Bromophenyl)aminocarbonyl]-2-carboxymethyl-4,5-diphenyl-3-pyrazolidinone and 1-[(4-bromophenyl)aminocarbonyl]-3-carboxymethoxy-4,5-diphenyl-2-pyrazoline [Example 12]”, in data set [6], the “titration pKa” value is given as 4.8.
`O=C1NN(C(=O)Nc2ccc(Br)cc2)[C@@H](c2ccccc2)[C@@H]1c1ccccc1` (single isomer, unassigned) [Example 141, (+)-trans-1-[(4-Bromophenyl)aminocarbonyl]-4,5-diphenyl-3pyrazolidinone]: the “Catalepsy Score” value came out at 3.8 ± 0.9 s in data set [7] (10 mg/kg, 60 Min); 3.3 ± 1.2 s in data set [7] (10 mg/kg, 120 Min); 4.6 ± 2.1 s in data set [7] (10 mg/kg, 180 Min); 1.1 ± 0.2 s in data set [7] (10 mg/kg, Pre); 2.6 ± 1.1 s in data set [7] (30 mg/kg, 60 Min); 2.0 ± 0.6 s in data set [7] (30 mg/kg, 120 Min). Further, the “Catalepsy Score” value in data set [7] (30 mg/kg, 180 Min) worked out at 4.9 ± 1.9 s; in data set [7] (30 mg/kg, Pre) it was 1.5 ± 0.3 s. The “nicotine withdrawal-induced increase in startle response” value in data set [8] (10 mg/kg, days 1-4) was “significantly reduced the nicotine withdrawal-induced increase in startle response on all days except day 4”. Also, the “nicotine withdrawal-induced increase in sensory responsiveness” value in data set [8] (30 mg/kg, days 1-4) was “significantly reduced the nicotine withdrawal-induced increase in sensory responsiveness on all days examined”; in data set [8] (60 mg/kg, days 1-4) it was “significantly reduced the nicotine withdrawal-induced increase in sensory responsiveness on all days examined”. The IC50 – broadly, the midpoint of a concentration-inhibition curve – in data set [5] (mouse brain membranes, read-out: Brain IC50) was 16 nM. Moreover, the “benzodiazepine withdrawal-induced increase in sensory responsiveness” value in data set [1] (60 mg/kg) and in data set [1] (100 mg/kg) was “significantly reduced the benzodiazepine withdrawal-induced increase in sensory responsiveness on all days examined” in each case.
Take `CN1CCC[C@H]1c1cccnc1` [nicotine, reference compound]: in data set [8] (6 mg kg base/day, minipump, twelve days, withdrawal), the “auditory startle response after cessation of chronic nicotine” value is on record as “significantly increased auditory startle responses”.
